According to patent US20110059909A1, “METHODS FOR TREATING INFLAMMATORY DISORDERS” (priority 2004, published 2011):
One block for each molecule: values may come before it.

Columns and labels:
Format in all cases: cell-based, rat
ERK1/2 = ERK1/2 activation (phospho-ERK1/2 immunoblot) in primary astrocytes
Experimental: For iNOS protein, the cells were washed with cold Tris buffered saline (TBS; 20 mM Trizma base, and 137 mM NaCl, pH 7.5), lysed in 1×SDS sample loading buffer (62.5 mM Trizma base, 2% w/v SDS, 10% glycerol), following sonication and centrifugation at 15,000×g for 5 min, the supernatant was used for the iNOS western immunoblot assay. The protein concentration of samples was determined with the detergent compatible protein assay reagent (Bio-Rad Laboratories, CA) using bovine serum albumin (BSA) as the standard. Sample was boiled for 3 min with 0.1 volumes of 10% β-mercaptoethanol and 0.5% bromophenol blue mix. Fifty μg of total cellular protein was resolved by electrophoresis on 8 or 12% polyacrylamide gels, electro-transferred to polyvinylidene difluoride (PVDF) filter and blocked with Tween 20 containing Tris-buffered saline (TBST; 10 mM Trizma base-pH 7.4, 1% Tween 20, and 150 mM NaCl) with 5% skim milk. After incubation with antiserum against iNOS (BD PharMingen, CA), rat GalT-2 (Abjent Inc., CA), H-Ras (Upstate Biotechnology, CA), GFAP (Santa Cruz Biotech, CA), or phospho-specific ERK1/2 (Cell signaling Tech Inc., MA), or pIκ-B (Signal Transduction), in PVDF buffer for 2 h at room temperature, the filters were washed 3 times with TBST buffer and then incubated with horseradish peroxidase conjugated anti-rabbit or mouse IgG for 1 h. The membranes were detected by autoradiography using ECL-plus (Amersham Pharmacia Biotech) after washing with TBST buffer.

NF-κB = assay: κB-repeat luciferase reporter gene assay
Experimental: Dominant negative and constitutively active ras expression vector (pCMVrasN17 and pCMVrasv12) and κB repeat luciferase reporter construct (pNF-κB-Luc) were purchased from BD Biosciences. 3×10^5 cells/well were cultured in 6-well plates for one day before the transfection. Transfection was performed with plasmid concentration constant (2.5 μg/transfection) and 8 μl of Fugene transfection reagent (Roche Molecular Biochemicals). 24 h after transfection, the cells were placed in serum free media for overnight. Following appropriate treatment, the cells were washed with phosphate buffered saline (PBS), scraped, and then resuspended with 100 μl of lysis buffer (40 mM of Tricine pH 7.8, 50 mM of NaCl, 2 mM of EDTA, 1 mM of MgSO4, 5 mM of dithiothreitol, and 1% of Triton X-100). After incubation at room temperature for 15 min with occasional vortexing, the samples were centrifuged. The luciferase and β-galactosidase activities were measured by using luciferase assay kit (Stratagene, CA) and β-gal assay kit (Invitrogen, CA) respectively. The emitted light and optical absorbance was measured using Spectra Max/Gemini XG (Molecular Device, CA) and SpectraMax 190 (Molecular Device).

IL-1β = IL-1β mRNA in LPS/IFNγ-stimulated primary astrocytes
Experimental: A 20-mer antisense oligonucleotide of the following sequence (5′-CGCTTGAGCGCAGACATCTT-3′, SEQ ID NO:1) targeted against rat lactosylceramide synthase (GalT-2) were synthesized by Integrated DNA Technology. A scrambled oligonucleotide (5′-CTGATATCGTCGATATCGAT-3′, SEQ ID NO:2) was also synthesized and used as control. Cells were counted and plated a day before transfection and the following day were treated with Oligofectamine (Invitrogen)-oligonucleotide complexes (200 nM oligo) under serum free conditions. 48 h following transfection, the protein levels of GalT-2 were analyzed using polyclonal antibodies raised against rat GalT-2 (Abjent Inc., CA). The transfected cells were stimulated with LPS/IFNγ (1 μg/ml) and levels of nitric oxide were checked 24 h following stimulation. iNOS mRNA and protein levels were checked at 6 h and 24 h, respectively, following stimulation of transfected cells.
5 μg total RNA was treated with 2 U DNAse I (bovine pancreas, Sigma) for 15 min at room temperature in 18 μl volume containing 1×PCR buffer and 2 mM MgCl2. It was then inactivated by incubation with 2 μl of 25 mM EDTA at 65° C. for 15 min. 2 μl of random primers were added and annealed to the RNA according to the manufacturer's protocol. cDNA was synthesized in a 50 μl reaction containing 5 μg of total RNA and 50-100 U reverse transcriptase by incubating the tubes at 42° C. for 60 min. […]

Molecule: CCCCCCCCCC(=O)NC(CN1CCOCC1)C(O)c1ccccc1.Cl [PDMP, D-threo-1-Phenyl-2-decanoylamino-3-morpholino-1-propanol.HCl]
- LPS/IFNγ-induced phosphorylation of ERK1/2 (ERK1/2; pretreated 0.5 h, LPS/IFNγ 20 min): inhibited
- TNFα-induced ERK1/2 phosphorylation (ERK1/2; pretreated 0.5 h, TNFα 20 min): inhibited
- LPS/IFNγ-induced κB-luciferase activity (NF-κB; PDMP 0.5 h before LPS/IFNγ): abolished

Molecule: AS GalT-2 oligonucleotides: 20-mer antisense oligonucleotide 5′-CGCTTGAGCGCAGACATCTT-3′, SEQ ID NO:1, against rat lactosylceramide synthase (GalT-2) (antisense CGCTTGAGCGCAGACATCTT; chemistry not given here)
- IL-1β mRNA expression (IL-1β; LPS/IFNγ-stimulated astrocytes, 48 h after transfection): suppressed

- Reversal of PDMP effect on κB-luciferase activity (NF-κB; exogenous LacCer): effectively bypassed
Molecule: Lactosylceramide [LacCer]
- Reversal of LY-mediated inhibition of TNFα-mediated ERK1/2 activation (ERK1/2; LY 30 μM plus LacCer 10 μM): bypassed
- Reversal of PD98059-mediated inhibition of TNFα-induced ERK1/2 activity (ERK1/2; exogenous LacCer): not
- Reversal of PDMP-mediated inhibition of LPS/IFNγ-induced ERK1/2 phosphorylation (ERK1/2; exogenous LacCer): reversed
- Reversal of PDMP-mediated inhibition of TNFα-induced ERK1/2 activity (ERK1/2; exogenous LacCer): reverse
- Reversal of AS-mediated inhibition of IL-1β expression (IL-1β; exogenous LacCer, LPS/IFNγ): reversed
